Results reported in US20070065443A1, “Fructoseamine 3 kinase and the formation of collagen and elastin” (priority 2004, published 2007).
Several values for one entry are separate records, joined by “and”; a condition that tells them apart may be missing. Equal values may be shown once.

Legend:
3-deoxyglucosone = experiment: Reduction of urinary and plasma 3-deoxyglucosone by polyollysines and meglumine; assay type: in vivo, rat; details: for reduction of plasma 3-deoxyglucosone / average reduction of urinary 3-deoxyglucosone: rats, 10 μmols i.p.; for reduction of plasma 3-deoxyglucosone: plasma at end of 3 h; for average reduction of urinary 3-deoxyglucosone: urine 3 h before vs 3 h after, normalized to creatinine
Description: Urine was collected from six rats for three hours. A plasma sample was also obtained. The animals were then given 10 μmols of either sorbitollysine, mannitollysine, or galactitollysine by intraperitoneal injection. Urine was collected for another three hours, and a plasma sample obtained at the end of the three hours. 3-deoxyglucosone was measured in the samples, as described in Example 5, below, and variable volumes were normalized to creatinine. The average reduction of urinary 3-deoxyglucosone was 50% by sorbitollysine, 35% by mannitollysine and 35% by galactitollysine. Plasma 3-deoxyglucosone was reduced 40% by sorbitollysine, 58% by mannitollysine and 50% by galactitollysine.
Three rats were treated as in b), immediately above, except meglumine (100 μmols) was injected intraperitoneally instead of the above-mentioned lysine derivatives. Three hours after the injection the average 3-deoxyglucosone concentrations in the urine were decreased 42%.
3DG was measured by GC-MS after deionization of the sample. 3DG was derivatized with a 10-fold excess of diaminonaphthalene in PBS. Ethyl acetate extraction gave a salt free fraction which was converted to the trimethyl silyl ethers with Tri-Sil (Pierce). Analysis was performed on a Hewlett-Packard 5890 selected ion monitoring GC-MS system. GC was performed on a fused silica capillary column (DB-5,25 mx.25 mm) using the following temperature program: injector port 250° C., initial column temperature 150° C. which was held for 1 minute, then increased to 290° C. at 16° C./minute and held for 15 minutes. Quantitation of 3DG employed selected ion monitoring using an internal standard of U-13C-3DG.

desmosines [1] = experiment: Lung desmosine levels in STZ-diabetic mice; assay type: in vivo; details: regardless of whether diabetic
Description: (§1) For desmosine analysis, the biopsy of tissue is fixated using paraffin. The paraffin is removed from the […] in the microfuge tubes by incubating for 10 minutes with 500 μL of xylene. Five microliters of water is added, the tubes gently vortexed and then microfuged. The xylene is carefully removed, 400 μL of 6N HCl is added to the protein pellet, and the samples hydrolyzed for 24 hours at 100° C. The acid is evaporated in a savant vacuum centrifuge and the hydrolysate redissolved in 400 μL distilled water. The samples are vortexed and microfuged and 20 μL removed from each tube for desmosine analysis by radioimmunoassay. Protein content is determined in 2 μL of the hydrolysate by slightly modifying the ninhydrin method. A stock ninhydrin solution is made by dissolving 10 g of ninhydrin in 375 mL of ethylene glycol and 125 mL of 4N sodium acetate buffer, pH 5.5. For the working solution, 250 μL of 10% stannous chloride suspension is added for every 10 mL of the ninhydrin stock solution. Hydroxyproline is determined in 50 μL of hydrolysate by amino acid analysis.
Lung tissues from mice made diabetic with STZ was excised and analyzed for desmosine levels. The levels of desmosines in diabetic mice were greater than non-diabetic mice.

[2] = biological target: T1, Calf skin collagen type I (Bos taurus, UniProt P02453+P02465); experiment: 3DG-induced collagen crosslinking and inhibition by arginine (CNBr digest, SDS-PAGE); assay type: biochemical; details: 37° C., 24 hours
T1 construct: Calf skin collagen type I (1.3 mg; Sigma); purchased Sigma; host or cells: calf skin
Description: Collagen type I was treated with 3DG in the-presence or absence of arginine. The samples were subjected to cyanogen bromide (CNBr) digestion, electrophoresed on a 16.5% SDS Tris-tricine gel, and then the gels were processed using silver stain techniques to visualize the proteins. Lane 1 contains molecular weight marker standards. Lanes 2 and 5 contain 10 and 20 μl of the collagen mixture following CNBr digestion. Lanes 3 and 6 contain the collagen mixture treated with 3DG and then digested with CNBr, and loaded at 10 and 20 μl, respectively. Lanes 4 and 7 contain the mixture of collagen incubated with 5 mM 3DG and 10 mM arginine and then digested with CNBr, and loaded at 10 and 20 μl, respectively.
Collagen I was incubated in the presence or absence of 3DG in vitro. Calf skin collagen type I (1.3 mg; Sigma) was incubated in 20 mM Na-phosphate buffer, pH 7.25, either alone, with 5 mM 3DG, or with 5 mM 3DG plus 10 mM arginine, in a total volume of 1 ml at 37° C. for 24 hours and then frozen and lyophilized. The residue was dissolved in 0.5 ml of 70% formic acid and cyanogen bromide was added (20:1, w/w). This solution was incubated at 30° C. for 18 hours. […] The extent of collagen crosslinking was determined by applying equal volumes of sample and analyzing by SDS-PAGE electrophoresis (16.5% Tris-tricine gel), as determined by the effects of 3DG on the migration of collagen.

Amadorase [3] = details: read-out: concentration inhibiting Amadorase by 50%; purified Amadorase, 37° C., 15 minutes
Description: Experiments were performed to test the effect of copper on the activity of the Amadorase enzyme in vitro. Using methods described elsewhere, increasing amounts of copper in the form of CuSO4, was added to an in vitro assay. Purified Amadorase was added to the reaction, incubated at 37° C. for 15 minutes, and the amount of FL3P measured. The graph depicted in FIG. 20 represents percent Amadorase activity as a function of copper concentration.

[4] = Urinary FL, 3DG and 3DF in humans after ingestion of glycated protein (2 g FL); assay type: in vivo, human; details: seven volunteers, 2 gram dose of fructoselysine as glycated protein food
Description: 260 g of casein, 120 g of glucose and 720 ml of water were mixed to give a homogeneous mixture. This mixture was transferred to a metal plate and heated at 65° C. for 68 hours. The resulting cake was then pulverized to a coarse powder. This powder contained 60% protein as determined by the Kjeldahl procedure.
One gram of the powder prepared as in step a., above, was hydrolyzed by refluxing with 6N HCl for 20 hours. The resulting solution was adjusted to pH 1.8 with NaOH solution and diluted to 100 ml. The fructoselysine content was measured on an amino acid analyzer as furosine, the product obtained from acid hydrolysis of fructoselysine. In this way, it was determined that the cake contained 5.5% (w/w) fructoselysine. […]
FL was measured by HPLC with a Waters 996 diode Array using a Waters C18 Free Amino Acid column at […] and a gradient elution system of acetonitrile-methyl alcohol-water (45:15:40) into acetonitrile-sodium acetate-water (6:2:92) at 1 ml/min. Quantitation employed an internal standard of meglumine. 3DF was measured by HPLC after deionization of the sample. […] Quantitation was performed from standard curves obtained daily with synthetic 3DF.
3DG was measured by GC-MS after deionization of the sample. […] Quantitation of 3DG employed selected ion monitoring using an internal standard of U-13C-3DG.

Amadorase [5] = experiment: In vitro Amadorase-dependent production of 3DG from FL; assay type: biochemical; details: FL 2.6 mM
[6] = test system: human dermal fibroblasts acquired from a patient with scleroderma; experiment: Collagen 1A1 mRNA by Northern blot in scleroderma fibroblasts; assay type: cell-based; details: 5 mM, 72 hours, normalized to GAPDH mRNA
Description: In these experiments 5 mM FL was added to cultured human dermal fibroblasts acquired from a patient with scleroderma. After 72 hours, cells were collected and mRNA isolated. Equal amounts of each mRNA preparation was separated by electrophoresis and the amount of collagen 1A1 mRNA detected by Northern blot using a radioactive probe to the collagen 1A1 mRNA as shown in FIG. 19. A phosphoimager was used to quantify the amount of collagen type 1 mRNA. A radioactive probe to the GAPDH mRNA was used as a control to normalize the level of collagen 1A1 mRNA in each sample. The level of collagen 1A1 RNA was decreased by 40%.

desmosines [7] = experiment: Skin desmosine content in diabetic rats; assay type: in vivo, rat
Description: as §1
The production of desmosines, a precursor to elastin, can be regulated by compounds that affect the Amadorase pathway. Skin from normal, diabetic, and animals treated with 1-deoxy-1-morpholinofructose were excised and for desmosine content as described in example 29.

desmosines [8] = experiment: Aorta desmosine levels in diabetic rats; assay type: in vivo, rat
Description: as §1

[9] = individual treated diabetic rats

T1 sequence (P02453 162-1217 limits assumed): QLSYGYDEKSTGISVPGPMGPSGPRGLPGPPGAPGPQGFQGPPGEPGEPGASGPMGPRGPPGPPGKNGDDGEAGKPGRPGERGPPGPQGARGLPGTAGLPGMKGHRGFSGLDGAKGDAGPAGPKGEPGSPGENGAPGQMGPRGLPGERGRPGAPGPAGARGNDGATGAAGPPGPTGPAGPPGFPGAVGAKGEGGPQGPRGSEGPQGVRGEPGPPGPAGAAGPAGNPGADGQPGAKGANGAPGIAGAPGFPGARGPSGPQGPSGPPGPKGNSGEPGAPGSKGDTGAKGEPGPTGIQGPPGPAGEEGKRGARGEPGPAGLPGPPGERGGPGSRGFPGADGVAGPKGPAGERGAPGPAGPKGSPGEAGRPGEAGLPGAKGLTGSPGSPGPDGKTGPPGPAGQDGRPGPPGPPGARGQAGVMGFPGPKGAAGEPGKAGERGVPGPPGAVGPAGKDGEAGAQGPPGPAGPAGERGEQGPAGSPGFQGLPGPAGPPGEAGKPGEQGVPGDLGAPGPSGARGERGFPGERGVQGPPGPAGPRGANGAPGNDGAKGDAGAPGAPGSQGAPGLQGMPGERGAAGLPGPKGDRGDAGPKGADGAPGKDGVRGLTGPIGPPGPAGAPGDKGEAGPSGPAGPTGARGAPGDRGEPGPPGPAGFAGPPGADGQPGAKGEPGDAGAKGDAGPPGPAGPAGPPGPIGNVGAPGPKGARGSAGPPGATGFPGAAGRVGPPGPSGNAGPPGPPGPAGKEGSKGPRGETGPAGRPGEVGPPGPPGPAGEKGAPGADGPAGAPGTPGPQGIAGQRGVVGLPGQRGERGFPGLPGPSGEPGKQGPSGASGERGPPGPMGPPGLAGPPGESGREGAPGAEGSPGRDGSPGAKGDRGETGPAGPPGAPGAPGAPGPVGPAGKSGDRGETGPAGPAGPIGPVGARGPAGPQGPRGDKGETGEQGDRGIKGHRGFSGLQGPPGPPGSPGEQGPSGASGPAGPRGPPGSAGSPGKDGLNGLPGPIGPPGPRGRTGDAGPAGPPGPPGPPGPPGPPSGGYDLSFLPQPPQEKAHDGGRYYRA
T1 sequence (P02465 80-1117 limits assumed): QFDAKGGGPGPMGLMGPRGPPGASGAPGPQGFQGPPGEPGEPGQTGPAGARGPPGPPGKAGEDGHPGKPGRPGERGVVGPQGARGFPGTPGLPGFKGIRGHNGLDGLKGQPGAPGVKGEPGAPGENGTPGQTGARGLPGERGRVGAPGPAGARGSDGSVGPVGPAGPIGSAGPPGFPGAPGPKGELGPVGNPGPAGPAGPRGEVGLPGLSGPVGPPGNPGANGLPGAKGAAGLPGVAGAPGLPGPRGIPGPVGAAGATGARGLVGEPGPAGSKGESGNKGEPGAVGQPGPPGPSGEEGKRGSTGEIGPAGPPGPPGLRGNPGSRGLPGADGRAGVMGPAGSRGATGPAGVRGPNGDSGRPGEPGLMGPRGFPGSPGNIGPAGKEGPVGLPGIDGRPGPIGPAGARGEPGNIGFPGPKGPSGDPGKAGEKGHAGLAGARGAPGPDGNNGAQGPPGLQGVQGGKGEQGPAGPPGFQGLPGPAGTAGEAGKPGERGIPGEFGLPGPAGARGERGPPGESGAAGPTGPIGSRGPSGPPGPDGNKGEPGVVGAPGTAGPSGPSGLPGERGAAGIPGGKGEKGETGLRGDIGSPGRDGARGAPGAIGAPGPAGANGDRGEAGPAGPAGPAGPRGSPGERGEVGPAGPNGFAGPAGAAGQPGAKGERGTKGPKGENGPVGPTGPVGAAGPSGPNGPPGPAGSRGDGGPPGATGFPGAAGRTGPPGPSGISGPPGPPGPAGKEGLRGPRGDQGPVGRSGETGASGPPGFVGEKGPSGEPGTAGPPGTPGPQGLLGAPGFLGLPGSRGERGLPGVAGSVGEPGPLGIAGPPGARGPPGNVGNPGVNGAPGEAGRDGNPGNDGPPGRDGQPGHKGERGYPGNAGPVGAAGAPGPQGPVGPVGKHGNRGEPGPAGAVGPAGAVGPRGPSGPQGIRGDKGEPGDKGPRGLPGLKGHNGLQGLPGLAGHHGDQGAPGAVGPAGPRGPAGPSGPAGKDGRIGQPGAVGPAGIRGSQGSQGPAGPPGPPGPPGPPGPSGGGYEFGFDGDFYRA

For CNC[C@H](O)[C@@H](O)[C@H](O)[C@H](O)CO [meglumine, reference compound], the “decrease of average 3-deoxyglucosone concentration in urine” value (3-deoxyglucosone; three rats, 100 μmols i.p., three hours after injection) was 42% and the “lung desmosine levels compared to untreated mice” value (desmosines [1]) was “less than mice not so treated”.

In the case of N=C(N)NCCC[C@H](N)C(=O)O [arginine], the “inhibition of 3DG induced collagen crosslinking” value ([2]; collagen type I with 5 mM 3DG plus 10 mM arginine) is reported as “fewer high molecular bands”.

With O=S(=O)([O-])[O-].[Cu+2] [Copper sulfate] the IC50 (Amadorase [3]) was about 1 µM.

In the case of N[C@@H](CCCCNC[C@H](O)[C@@H](O)[C@H](O)[C@H](O)CO)C(=O)O [sorbitollysine], the “reduction of plasma 3-deoxyglucosone” value (3-deoxyglucosone) is reported as 40% and the “average reduction of urinary 3-deoxyglucosone” value (from here on “average reduction”) (3-deoxyglucosone) is reported as 50%.

In the case of N[C@@H](CCCCNC[C@@H](O)[C@@H](O)[C@H](O)[C@H](O)CO)C(=O)O [mannitollysine], the “reduction of plasma 3-deoxyglucosone” value (3-deoxyglucosone) is reported as 58% and the “average reduction” value (3-deoxyglucosone) is reported as 35%.

In the case of N[C@@H](CCCCNCC(=O)[C@@H](O)[C@H](O)[C@H](O)CO)C(=O)O [fructoselysine], the “time of peak 3DF excretion in urine after FL bolus” value [4] is reported as “about 4 hours”, the “3DG (mM) after 24 hours” value (Amadorase [5]; reaction 1: Amadorase +, ATP +) is reported as 1.58 mM and the “FL3P (mM) after 24 hours” value (Amadorase [5]; reaction 1: Amadorase +, ATP +) is reported as 0.2 mM. For the same compound, the “3DG (mM) after 24 hours” value (Amadorase [5]; reaction 2: Amadorase +, ATP −) was 0.08 mM, the “FL3P (mM) after 24 hours” value (Amadorase [5]; reaction 2: Amadorase +, ATP −) was 0.0 mM and the “3DG (mM) after 24 hours” value (Amadorase [5]; reaction 3: Amadorase −, ATP +) was 0.09 mM. The “FL3P (mM) after 24 hours” value (Amadorase [5]; reaction 3: Amadorase −, ATP +) was 0.0 mM, the “3DG (mM) after 24 hours” value (Amadorase [5]; reaction 4: Amadorase −, ATP −) was 0.08 mM and the “FL3P (mM) after 24 hours” value (Amadorase [5]; reaction 4: Amadorase −, ATP −) was 0.0 mM. The “decrease of level of collagen 1A1 RNA” value [6] was 40%.

With O=C(CN1CCOCC1)[C@@H](O)[C@H](O)[C@H](O)CO [1-deoxy-1-morpholinofructose] the “skin desmosine levels compared to untreated diabetic animals” value (desmosines [7]; diabetic animals, P=0.00242) was “lower levels of desmosines”, the “skin desmosine content pmD/mgP” value (desmosines [7]; [9]) was 63.1 pmD/mgP and 67.9 pmD/mgP (2×) and 88.1 pmD/mgP and 64.3 pmD/mgP and 65.8 pmD/mgP and 65.1 pmD/mgP and 66.8 pmD/mgP and the “aorta desmosine levels compared to untreated diabetic rats” value (desmosines [8]; diabetic rats, P=0.104) was “decrease in desmosine levels”. The “aorta desmosine pmD/mgP” value (desmosines [8]; [9]) was 3809 pmD/mgP and 2558 pmD/mgP and 2842 pmD/mgP and 2906 pmD/mgP and 3633 pmD/mgP and 3681 pmD/mgP.

For N[C@@H](CCCCNC[C@H](O)[C@@H](O)[C@@H](O)[C@H](O)CO)C(=O)O [galactitollysine], the “reduction of plasma 3-deoxyglucosone” value (3-deoxyglucosone) was 50% and the “average reduction” value (3-deoxyglucosone) was 35%.

For O=CC(=O)C[C@H](O)[C@H](O)CO [3DG, 3-deoxyglucosone, reference compound], the “effect on collagen migration (crosslinking)” value ([2]; collagen type I with 5 mM 3DG) was “caused the collagen to migrate as if it had a higher molecular weight”.
